Results from patent US12486283B2, “Crystalline salt of eribulin” (priority 2020, dated 2025).
Entries after “also recorded” stand apart in the source; their conditions may differ. Where a name gives a salt, the structure may show the parent alone.

Experiments:
Format in all cases: physicochemical
[1] = Hygroscopicity test by dynamic vapor adsorption and desorption (DVS); settings: for hygroscopicity compared with amorphous eribulin mesylate: 25° C. and 80% RH; for stability to moisture compared with amorphous eribulin mesylate: DVS hygroscopicity test; for crystalline form after the hygroscopicity test: after the test was completed
Procedure: Eribulin edisylate obtained in Examples 2, 5, and 7 and the amorphous eribulin mesylate, which is the active component of commercially available Halaven, were subjected to hygroscopicity test by repeating moisture adsorption and desorption once at an interval of 5% RH in an isothermal condition of 25° C. and a relative humidity of 2 to 98% using dynamic vapor adsorption and desorption (DVS) (dynamic vapor adsorption, VTI SGA-100, TA Instruments).

[2] = Stability test: properties (appearance) and X-ray powder diffraction analysis after storage; settings: 40±2° C., 75±5% RH
Procedure: Diffraction patterns were obtained in the range of 3 to 40° 2θ using a X-ray powder diffractometer, and the X-ray powder diffraction analysis conditions were as follows. • Instrument: BrukerA26X1 D2 Phaser • Time per step: 0.5 s • Scanning method: Continuous PSD fast • Detector: Lynxeye (1D mode) (2) Differential Scanning Calorimetry (DSC)
(§1) After 2 weeks and 4 weeks of storage, the occurrence and increase of related substances in each sample were evaluated by high-performance liquid chromatography, and changes were confirmed by X-ray powder diffraction analysis and differential scanning calorimetry to evaluate stability.

[3] = Stability test: purity / related substances by high-performance liquid chromatography after storage; settings: 75±5% RH; for purity by high-performance liquid chromatography: stored sealed in amber vial at 40±2° C.
Procedure: as §1

| Compound | hygroscopicity compared with amorphous eribulin mesylate [1] | stability to moisture compared with amorphous eribulin mesylate ([1]; 25° C.) | crystalline form after the hygroscopicity test ([1]; DVS, 25° C., 2 to 98% RH) | Hygroscopicity (EP standard (25° C., 80% RH)) ([1]; DVS, 25° C.) [%] | change in properties ([2]; 2nd week) | change in properties ([2]; 4th week) | solid state over time in the stability test ([2]; over time) | X-ray powder diffraction analysis result (solid form) ([2]; time 0 week) | X-ray powder diffraction analysis result (solid form) ([2]; time 0 week, listed as eribulin mesylate) | X-ray powder diffraction analysis result (solid form) ([2]; time 2 weeks) | X-ray powder diffraction analysis result (solid form) ([2]; time 4 weeks) | purity by high-performance liquid chromatography ([3]; time 0 week) [%] | purity by high-performance liquid chromatography ([3]; time 2 weeks) [%] | purity by high-performance liquid chromatography ([3]; time 4 weeks) [%] | purity by high-performance liquid chromatography ([3]; time 4 weeks, listed as eribulin mesylate) [%] | deliquescence during the hygroscopicity test ([1]; DVS, 25° C., 2 to 98% RH) | change in properties ([2]; whole stability test period (4 weeks)) | decrease in purity (increase in related substances) ([3]; 40±2° C., during 4 weeks) [%] | stability to heat and humidity compared with eribulin mesylate ([3]; 40±2° C., up to 4 weeks, Ammonium Salt) |
| --- | --- | --- | --- | --- | --- | --- | --- | --- | --- | --- | --- | --- | --- | --- | --- | --- | --- | --- | --- |
| Eribulin Edisylate Cyclohexylamine Salt [Example 5] | lower hygroscopicity | superior stability to moisture | initial crystalline form was maintained | 5.2 |  |  |  |  |  |  |  |  |  |  |  |  |  |  |  |
| Eribulin Edisylate Dicyclohexylamine Salt [Example 7] | lower hygroscopicity | superior stability to moisture | initial crystalline form was maintained | 5.6 |  |  |  |  |  |  |  |  |  |  |  |  |  |  |  |
| C=C1C[C@@H]2CC[C@@]34C[C@H]5O[C@H]6[C@@H](O3)[C@H]3O[C@H](CC[C@@H]3O[C@H]6[C@H]5O4)CC(=O)C[C@@H]3[C@@H](OC)[C@@H](C[C@H](O)CN)O[C@H]3C[C@H]3O[C@@H](CC[C@@H]1O2)C[C@@H](C)C3=C.CS(=O)(=O)O [Eribulin mesylate] |  |  |  |  | the solid deliquesced and the color changed to yellow | the deliquescent state was maintained and the color changed from yellow to brown | deliquescence was observed | amorphous | amorphous solid | deliquescence | deliquescence | 99.66 | 88.00 | 7.30 | 7 | deliquescence was observed |  |  |  |
| C=C1C[C@@H]2CC[C@@]34C[C@H]5O[C@@H]6C(O[C@H]7CC[C@H](CC(=O)C[C@@H]8[C@@H](OC)[C@@H](C[C@H](O)CN)O[C@H]8C[C@H]8O[C@@H](CC[C@@H]1O2)C[C@@H](C)C8=C)O[C@@H]7[C@@H]6O3)[C@H]5O4 [Example 2, Eribulin Edisylate Ammonium Salt] | lower hygroscopicity | superior stability to moisture | initial crystalline form was maintained | 5.4 |  |  |  | crystalline |  | maintain | maintain | 99.73 | 99.50 | 99.35 |  |  | No change in properties | ≤ 0.5 | excellent stability to heat and humidity; also recorded: more stable to heat and humidity |
